What was measured:
DAOY cells = assay: LDH release cytotoxicity assay; assay type: cell-based, human; conditions: 24 hours, 0, 5, 10 and 20 μM; high phosphorylated Cdc27
Procedure: (§1) Lactate dehydrogenase (LDH) levels as a measure of cell death were determined using the Non-radioactive Cytotoxicity kit (Promega, Madison, Wis.) according to manufacturer's instructions. […] Cell debris was removed by centrifugation. Viable cell LDH was collected from cells lysed by freezing for 15 minutes at −70° C. followed by thawing at 37° C. The medium was collected and cleared from cell debris by centrifugation. The relative release of LDH was determined as the ratio of released LDH versus total LDH from viable cells.
Data represent mean±SEM of three independent experiments.

Cdc27 = Cdc27 immunoblot of cell lines after curcumin treatment; assay type: cell-based; conditions: 20 μM curcumin for 0, 4, 8 and 24 hours; DAOY, NT2, D283 Med, D341 Med, HCT116, HT1376, RT4, MDCK
Procedure: Cell lysates were prepared in a buffer containing 20 mM Tris (pH 7.5), 150 mM NaCl, 1 mM EDTA, 1 mM EGTA, 0.1% Triton X-100, 2.5 mM sodium pyrophosphate, 1 mM β-glycerol phosphate, 1 mM sodium vanadate, 1 mM phenylmethylsulfonyl fluoride and 5 μg/ml of antipapain, leupeptin and pepstatin (protease inhibitor cocktail). Protein concentrations were determined by the Dc protein assay (Bio-Rad, Hercules, Calif.). Equal amounts of protein were resolved by SDS-PAGE and transferred to nitrocellulose. The membranes were blocked in 5% non-fat milk in Tris-buffered saline with 0.1% […] (TBST). Primary antibodies diluted in 5% bovine serum albumin/TBST were incubated overnight at 4° C. and HRP-conjugated secondary antibodies in 5% non-fat milk/TBST for 2 hours at room temperature. Protein bands were visualized by Enhanced Chemiluminescence Plus (GE Healthcare, Piscataway, N.J.).
The cell lines DAOY, NT2, D283 Med, D341 Med (brain); HCT116 (colon); HT1376, RT4 (bladder); MDCK (kidney) were screened for Cdc27 phosphorylation by immunoblot of Cdc27. […] Actin immunoblot is shown as loading control.
Arrows indicate crosslinked Cdc27, while arrowheads show phosphorylated Cdc27. Equal amounts of protein were used as shown by actin immunoblot.

HT1376 cells = assay: LDH release cytotoxicity assay; assay type: cell-based; conditions: 24 hours, 0, 5, 10 and 20 μM; low phosphorylated Cdc27
Procedure: as §1

APC/C = target: T1, APC/C (Homo sapiens, UniProt P30260); assay: In vitro APC assay (ubiquitin ligase activity on cyclin B); assay type: biochemical; conditions: DAOY released from G2/M block with 20 μM or 40 μM curcumin; two hours vs one hour of release
T1 construct: Cell pellets of control and curcumin-treated DAOY cells were snap frozen in liquid nitrogen; endogenous in cells; host or cells: DAOY cell lysate, 30 μg total protein
Procedure: In vitro APC assays were performed as described (Rajasekaran et al., Molecular Cancer Therapeutics 7(7); 2142-2151 (2008) using an in vitro transcribed and translated N-terminal fragment of cyclin B1 (cyclin B1-N1-102) as substrate, ^35S-methionine labeled cyclin B1-N1-102 was obtained using the TNT quick-coupled Transcription/Translation system (Promega, Madison, Wis.). Cell pellets of control and curcumin-treated DAOY cells were snap frozen in liquid nitrogen. The cell pellets were resuspended in an ice-cold hypotonic buffer (20 mM Hepes pH 7.6, 20 mM NaF, 1.5 mM MgCl2, 1 mM DTT, 5 mM KCl, 20 mM β-glycerophosphate, 250 μM NaVO3, 1 mM PMSF, and EDTA-free protease inhibitors) and incubated for 30 minutes on ice. The lysates were briefly homogenized and cleared by a 1 hour centrifugation at 13,000 rpm in a micro centrifuge. For the assay, 30 μg of total protein were added to reaction buffer containing 20 mM Tris pH 7.5, 20 mM NaCl, 5 mM MgCl2, 5 mM ATP-γ-S, 20 μg/ml MG-132, 0.5 μg UbcH10, 20 μM ubiquitin, 1 μm ubiquitin aldehyde, protease inhibitor, and 2 μl of in vitro translated ^35S-cyclin B1-N1-102 and incubated at 37° C. for 60 minutes. The reactions were stopped by adding sample buffer and proteins were separated by SDS-PAGE on a 4-15% gradient gel. To visualize the bands, the gel was incubated and enhanced with salicylate, dried, and then subjected to autoradiography. […]

[1] = target: T2, cystic fibrosis transmembrane conductance regulator (CFTR) (Homo sapiens, UniProt P13569); conditions: in microsomes and in intact cells; cited from earlier work
T2 construct: host or cells: microsomes and intact cells (not further described)
T2 sequence (P13569 whole entry, species assumed): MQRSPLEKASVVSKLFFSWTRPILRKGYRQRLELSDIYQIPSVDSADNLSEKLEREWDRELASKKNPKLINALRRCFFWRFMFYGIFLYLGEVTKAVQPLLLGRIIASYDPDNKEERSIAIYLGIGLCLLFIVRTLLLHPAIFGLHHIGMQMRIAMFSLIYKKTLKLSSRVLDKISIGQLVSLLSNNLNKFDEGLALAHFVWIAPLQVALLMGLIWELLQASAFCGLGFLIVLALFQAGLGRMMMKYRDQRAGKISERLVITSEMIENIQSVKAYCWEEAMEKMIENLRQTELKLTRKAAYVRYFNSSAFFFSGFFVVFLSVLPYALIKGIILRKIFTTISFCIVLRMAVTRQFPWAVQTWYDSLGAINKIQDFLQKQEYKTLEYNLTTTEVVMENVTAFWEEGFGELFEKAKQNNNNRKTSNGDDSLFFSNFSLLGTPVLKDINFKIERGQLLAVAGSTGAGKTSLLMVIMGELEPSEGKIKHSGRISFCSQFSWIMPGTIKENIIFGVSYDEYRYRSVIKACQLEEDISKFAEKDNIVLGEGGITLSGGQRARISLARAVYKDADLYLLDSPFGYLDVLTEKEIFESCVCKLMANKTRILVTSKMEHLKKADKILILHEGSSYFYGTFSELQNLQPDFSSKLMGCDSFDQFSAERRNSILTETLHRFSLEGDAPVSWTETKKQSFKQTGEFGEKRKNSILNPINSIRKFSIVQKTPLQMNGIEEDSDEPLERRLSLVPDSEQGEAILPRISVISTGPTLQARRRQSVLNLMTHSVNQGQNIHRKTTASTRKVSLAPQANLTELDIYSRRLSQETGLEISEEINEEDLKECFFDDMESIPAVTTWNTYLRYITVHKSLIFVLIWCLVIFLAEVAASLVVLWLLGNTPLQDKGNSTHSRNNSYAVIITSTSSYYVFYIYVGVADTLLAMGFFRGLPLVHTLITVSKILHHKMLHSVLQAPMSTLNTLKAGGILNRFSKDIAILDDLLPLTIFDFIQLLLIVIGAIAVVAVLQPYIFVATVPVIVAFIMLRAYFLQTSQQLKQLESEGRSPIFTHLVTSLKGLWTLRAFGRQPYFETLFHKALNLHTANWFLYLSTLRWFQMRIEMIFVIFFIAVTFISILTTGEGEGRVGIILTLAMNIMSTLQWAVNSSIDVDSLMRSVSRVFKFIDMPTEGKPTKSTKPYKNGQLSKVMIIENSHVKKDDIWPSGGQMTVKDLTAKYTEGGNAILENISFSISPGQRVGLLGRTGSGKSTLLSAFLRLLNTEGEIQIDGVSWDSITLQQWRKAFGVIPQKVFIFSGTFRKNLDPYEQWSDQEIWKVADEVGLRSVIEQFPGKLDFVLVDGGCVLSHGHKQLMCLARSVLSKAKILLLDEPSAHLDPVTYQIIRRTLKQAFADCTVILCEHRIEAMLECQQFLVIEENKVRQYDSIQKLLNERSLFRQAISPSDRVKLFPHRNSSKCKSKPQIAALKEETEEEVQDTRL

- APC activity (APC/C): reduced
Structure (SMILES): COc1cc(/C=C/C(=O)CC(=O)/C=C/c2ccc(O)c(OC)c2)ccc1O [Curcumin, (E,E)-1,7-bis(4-hydroxy-3-methoxyphenyl)-1,6-heptadiene-3,5-dion]
- sensitivity to curcumin-induced apoptosis (LDH release) (DAOY cells): most sensitive
- crosslinking of Cdc27 in cell lines (Cdc27): Only in cell lines with the phosphorylated form of Cdc27 was curcumin able to crosslink Cdc27
- sensitivity to curcumin-induced apoptosis (LDH release) (HT1376 cells): almost unaffected
- crosslinking of CFTR polypeptides [1]: can crosslink CFTR polypeptides into SDS-resistant oligomers
